Reference: patent publication US12239132B2, “Compounds and methods for increasing soil nutrient availability” (SOUND AGRICULTURE COMPANY, priority 2018, dated 2025)
Entries after “also recorded” stand apart in the source; their conditions may differ.

Columns and labels:
[1] = tested on: soil consortia cultures; assay: Phosphate solubilization in soil-inoculated NBRIP cultures; assay type: cell-based
Method: To select for the native soil microbial consortia that solubilize phosphorus, a small quantity of soil was inoculated into flask cultures of NBRIP media. Flasks were treated with increasing amounts of AB09 and grown at room temperature on orbital shakers for 4 days. The cleared supernatant of the soil cultures were quantified for available phosphorus using the malachite green method.
FIG. 3. AB09 induced phosphate solubilization activity occurs in a dose-dependent manner in soil consortia cultures. 50 mL of NBRIP growth medium was added to 250 mL baffled flasks, containing 500 mg of 2 mm particle-sized soil, to select for phosphate solubilizing microbes. Flasks with sterilized foam caps were placed on orbital shakers at 110 RPM for 4 days at room temperature. Orthophosphate was measured using the malachite-green phosphate method.
50 mL of NBRIP growth medium was added to 250 mL baffled flasks, containing 500 mg of 2 mm particle-sized soil, to select for phosphate solubilizing microbes. AB09 stock solution (10 mg/mL) was prepared in distilled water. Untreated controls received no AB09. […]
Flasks with sterilized foam caps were placed on orbital shakers at 110 RPM for 4 days at room temperature. […] Supernatant from samples were removed and placed into new microcentrifuge tubes for orthophosphate quantification using the malachite green method.

[2] = tested on: wheat; assay: Wheat growth on nitrogen free media with nitrogen fixing bacterium; assay type: in vivo; settings: AB09 in combination with a nitrogen fixing bacterium, vs control lacking treatment
Method: The ability of the AB09 molecule to control useful soil bacteria metabolism has implications for building integrated technology systems and groundbreaking products. In the lab, AB09 was administered in combination with a nitrogen fixing bacterium to nitrogen free media.

[3] = tested on: Azotobacter vinlandii; assay: Acetylene reduction method to measure nitrogen fixation in Azotobacter vinlandii; assay type: cell-based; settings: increasing amounts of AB09, Burks-N media, 48 h growth, dose response
Source text: Azotobacter vinlandii is a model free-living nitrogen fixing bacteria, or diazotroph, commonly found in soils. The acetylene reduction technique was used to determine if the nitrogen fixation activity of A. vinlandii is altered due to AB09 treatment. The acetylene reduction technique relies on the non-specific activity of the nitrogenase enzyme (which is responsible for reducing atmospheric dinitrogen gas N2 to ammonia NH3), to reduce acetylene to ethylene. Acetylene and ethylene gases were detected and quantified by GC/MS.
Liquid flask cultures of A. vinlandii were grown in nitrogen-free growth media (Burks-N) and supplemented with varying amounts of AB09 (0 ug/mL culture received a mock treatment of water). Samples were analyzed for acetylene reduction to ethylene after 48 h of growth (cell concentration was normalized prior to the addition of acetylene).
Azotobacter vinlandii cultures starting from OD600=0.02 were grown in liquid N-free bacterial growth media (Burks-N) with varying amounts of AB09 shaking at 28 C. Three flasks of bacteria were grown for each concentration of AB09. After 48 h, cultures were normalized OD600=0.1 and 5 mL of the normalized culture was transferred to gas-tight autosampler vials. […] After 3 hours of incubation (with shaking at 28 C), the gas headspace of the vials was measured via GC/MS for acetylene and ethylene. […]

CC1=CC(Oc2c(C)occc2=O)OC1=O (stereo not shown) [AB09, maltol lactone]
increase of phosphate concentration over the untreated control ([1]; highest treatment 25 ug/mL, 4 days, room temperature): 2-3 fold
ability of soil consortia cultures to solubilize phosphorus ([1]; increasing amounts of AB09, 4 days): enhanced by AB09 in a dose-responsive manner
wheat growth on nitrogen free media [2]: substantially greater; also recorded: more robust growth
ethylene gas from acetylene reduction (nitrogenase activity) [3]: increased amounts of ethylene gas
